Experimental data published in ChEMBL document CHEMBL1156829 (Proc Natl Acad Sci U S A, 2008).

Assays:
Plasmodium falciparum [1] = assay: NOVARTIS: Inhibition of Plasmodium falciparum 3D7 (drug-susceptible) proliferation in erythrocyte-based infection assay; type: functional, organism-based
[2] = NOVARTIS: Cytotoxicity against human hepatocellular carcinoma cell line (Huh7); type: toxicity, cell-based, Huh-7; settings: Huh7 cells (hepatocellular carcinoma cell line)
Plasmodium falciparum [3] = assay: NOVARTIS: Inhibition of Plasmodium falciparum W2 (drug-resistant) proliferation in erythrocyte-based infection assay; type: functional, organism-based; settings: read-out: EC50

Structure (SMILES) | EC50 (Plasmodium falciparum [1]; Plasmodium falciparum, 3D7) [nM] | CC50 [2] [nM] | EC50 (Plasmodium falciparum [3]; Plasmodium falciparum, W2) [nM] | EC50 (Plasmodium falciparum [1]) [nM] | EC50 (Plasmodium falciparum [3]) [nM]
CCOC(=O)C1=C(C)NC2=C(C(=O)CC(c3ccc(OC)c(OC)c3)C2)C1c1ccc(Br)cc1 (centres undefined) | 18.2 | > 100000 | 4.81 | – | –
CCCN(CCC)S(=O)(=O)c1cc(Br)cc2c1N(C(C)=O)CC2 | 1990 | > 100000 | 561 | – | –
COc1ccc(OCC(=O)Nc2cccc(NC(=O)COc3ccc(OC)cc3)n2)cc1 | 6840 | > 100000 | 2290 | – | –
CSC1=NC(=Nc2c(C)cccc2C)C2(CCC(C(C)(C)C)CC2)N1c1ccc(Cl)cc1 (centres undefined) | 1480 | > 67300 | > 10000 | – | –
CCN1C(=Cc2sc3ccc(Cl)cc3[n+]2CC)C=Cc2cc(OC)ccc21 | – | > 10000 | – | 473 | 602
Cc1cc(C)cc(-n2c(C)cc(/C=C3/SC(=Nc4ccc(Br)cc4)NC3=O)c2C)c1 | 325 | > 10000 | 588 | – | –
COC(=O)c1c(-c2c(Cl)cccc2Cl)noc1/C=C/Nc1ccccc1 | 290 | > 10000 | < 6.76 | – | –
COc1ccccc1NC(=O)c1cnn(-c2ccccc2)c1-n1cccc1 | > 119 | > 10000 | 494 | – | –
N#Cc1nc(C(=O)N2CCOCC2)oc1N1CCOCC1 | 995 | > 10000 | > 1250 | – | –
Cc1ccc(S(=O)(=O)N(C)CCCNc2ccnc3cc(Cl)ccc23)cc1 | 380 | 4010 | 314 | – | –
COc1ccc(-c2ccc3c(N)c(C(=O)NCCc4ccccc4)sc3n2)cc1OC | > 10800 | > 100000 | 4970 | – | –
COc1ccc(-c2c(C(F)(F)F)nn(C)c2NC(=O)Nc2ccc(F)cc2F)cc1 | 242 | 78200 | 356 | – | –
CC(C)[C@@]1(NC(=O)[C@@H]2C[C@@H]3c4cccc5[nH]cc(c45)C[C@H]3N(C)C2)O[C@@]2(O)[C@@H]3CCCN3C(=O)[C@H](Cc3ccccc3)N2C1=O [DIHYDROERGOCRISTINE] | 1250 | 33100 | 449 | – | –
C=CCN1C(=O)/C(=C\c2cc(Cl)c(O)c(OC)c2)C(=O)NC1=S | 2110 | > 10000 | > 1480 | – | –
COc1ccc(/C=C2\SC(=N)N(c3ccc4c(c3)OCO4)C2=O)cc1OC | > 1720 | > 10000 | > 1060 | – | –
CCOC(=O)C1CCN(C(=O)CN2C(=O)c3ccccc3C2c2c[nH]c3ccccc23)CC1 (centres undefined) | 519 | > 100000 | 513 | – | –
N#CC(=Cc1cn(Cc2ccccc2Cl)c2ccccc12)c1nn(CCO)c(N)c1C#N | 273 | 44800 | 294 | – | –

Structure (SMILES) | EC50 (Plasmodium falciparum [1]; Plasmodium falciparum, 3D7) [nM] | CC50 [2] [nM] | EC50 (Plasmodium falciparum [3]; Plasmodium falciparum, W2) [nM] | EC50 (Plasmodium falciparum [1]) [nM] | EC50 (Plasmodium falciparum [3]) [nM]
Cc1c2ccccc2cc(Cc2ccccc2)[n+]1C | 488 | > 100000 | 369 | – | –
CCCN1CCC(c2nc(N3CCOCC3)ncc2-c2cc(C)no2)CC1 | > 433 | > 10000 | > 1250 | – | –
COc1cccc(N2C(=O)/C(=C/c3cccnc3)SC2=S)c1 | > 1140 | > 10000 | > 1250 | – | –
CCCCCCCSc1nsc(NC(=O)CCC)n1 | > 1310 | > 10000 | < 6.51 | – | –
COc1ccc(NC(=O)NCc2cccn2Cc2ccc(F)cc2)cc1OC | 1070 | > 10000 | 661 | – | –
COc1cc(NC(C)CCCN(Cc2ccc(N(C)C)cc2)C(=O)C(Cl)Cl)c2ncccc2c1 (centres undefined) | 948 | > 6790 | 66.6 | – | –
COc1ccc(C2c3cccn3-c3ccccc3N2C(=O)CN(C(=O)Nc2ccc(C(F)(F)F)cc2)C2CC2)cc1 (centres undefined) | 7510 | > 100000 | 6200 | – | –
Cc1cc(/C=C2/SC(=Nc3ccccc3)NC2=O)c(C)n1-c1cccc([N+](=O)[O-])c1 | 395 | > 10000 | 556 | – | –
CC1(C)C2CCC1(C)C(OCC[N+]1(Cc3ccccc3)CCCC1)C2 (centres undefined) | 161 | 12700 | 195 | – | –
CCCCCc1ccc(C(=O)N(CCCC(C)Nc2cc(OC)cc3cccnc23)Cc2ccc(OC)c(OC)c2)cc1 (centres undefined) | 514 | 5030 | 284 | – | –
N=c1c2c(n(Cc3ccc(Cl)cc3)c3c1CCC3)CCC2 | 62.7 | > 100000 | 125 | – | –
O=C(Nc1c2ccccc2nc2ccccc12)c1cc(Cl)ccc1O | 1130 | > 100000 | 484 | – | –
Cc1cccc(C)c1NC(=O)C(O)c1ccc(Cl)cc1Cl (centres undefined) | > 1250 | > 10000 | 2200 | – | –
O=C(c1cc2n(n1)C(C(F)(F)F)CC(c1cccs1)N2)N1CCN(C(c2ccccc2)c2ccccc2)CC1 (centres undefined) | 341 | > 100000 | 745 | – | –
Oc1ccc(-c2ccccc2)cc1CNCCCN1CCOCC1 | 706 | > 10000 | 28.4 | – | –
CC(=O)N(C1=C(N2CCCC2)C(=O)c2ccccc2C1=O)c1ccc(I)cc1 | 553 | 47000 | 224 | – | –
